Laboratory results from patent US20210348124A1, “SEBACEOUS GLAND ORGANOIDS AND USE THEREOF” (TECHNION RESEARCH & DEVELOPMENT FOUNDATION LIMITED, priority 2018, published 2021).

How the values were obtained:
Type in all cases: cell-based, mouse
DBL-treated organoids [1] = assay: Drug treatment of DBL-treated SG organoids (size, ORO, Ki67, cell size); details: for organoid size: then drug for three days
Source text: With a system that recapitulates important aspects of acne vulgaris, the extent that currently prescribed medications could affect its development was examined. Retinoids are derivatives of vitamin A, which serve as the first-line treatment for acne. Specifically, all-trans-Retinoic acid (ATRA; Tretinoin), formulated ATRA (Ret-Avit) and 13-cis RA (Isotrtinoin) are used worldwide. […] The differentiation program in the SG is a multi-step process. Cells prior to the onset or during early stage of differentiation express AR, which is known to reside upstream and lead to the expression of F[…]. […] Therefore, it was hypothesized that inhibition of c-Myc could serve as a beneficial treatment of acne vulgaris. For this aim, the 10058-F4 c-Myc inhibitor was administered to DBL-treated organoids and size, proliferation and differentiation were monitored.

[2] = tested on: Blimp1−YFP+-derived sebaceous gland organoids; assay: SG organoids treated with c-Myc inhibitor: size, cell size/number, proliferation, lipid staining
Description: For organoid generation a total of ˜1000 cells were mixed with 50 μl of Matrigel (BD Bioscience) and plated in 24-well plates. After polymerization of Matrigel, 500 μl of HFSC media containing growth factors; 20 ng ml-1 hFGF (Peprotech), 40 ng ml-1 mEGF (Peprotech), 500 ng ml-1 hR-spondin 1, 100 ng ml-1 mNoggin (Peprotech) and B-27 Supplement (50×) (Invitrogen)) was added. Organoid treatment with cMyc inhibitor 10058-F4 (50 Tocris Bioscience) or DMSO (as control) was performed for 4 days and renewed upon media change. Organoids were fixed in 4% PFA for 1 hour for immunofluorescence analysis or harvested for RNA extraction. Antibody staining was visualized using secondary antibodies conjugated to Alexa Fluor-488, Alexa Fluor-546, and Alexa Fluor-633. Analysis was performed on Zeiss LSM 880 confocal microscope. Oil-red-O (ORO) staining was performed by incubating samples in 0.18% ORO for 20 min and washing with PBS. Next, the effect of inhibiting c-Myc activity by administering the specific c-Myc inhibitor, 10058-F4 was monitored. […] Six-day old SG organoids were supplemented with the c-Myc inhibitor for 4 days. […] Since the effect on organoid size could result from either altered cell size or number both scenarios were examined. […] Whether the effect of c-Myc inhibition originates from an effect on cell proliferation and/or differentiation was examined next. Employing IF staining with two proliferative markers, Ki67 and MCM2, indicated a significant decline in Ki67+ (69%) and MCM2+ (72%) proliferative cells (FIG. 4J-L). […] This is in line with the reported role of c-Myc in regulating differentiation in the SG in vivo. […] Next, using Real time (RT)-PCR analysis, the levels of transcripts that are expressed in either SG differentiating or differentiated cells, which play a key role in this process were examined. Inhibition of c-Myc decreased the levels of all examined factors including Androgen Receptor (AR) and fatty acid synthase (FASN) (FIG. 4O).

[3] = tested on: Blimp1−YFP+-derived sebaceous gland organoids; assay: Real-time PCR of sebocyte differentiation markers in c-Myc inhibitor-treated SG organoids; details: RT-PCR, inhibitor for 4 days
Description: Organoid treatment with cMyc inhibitor 10058-F4 (50 Tocris Bioscience) or DMSO (as control) was performed for 4 days and renewed upon media change. Organoids were fixed in 4% PFA for 1 hour for immunofluorescence analysis or harvested for RNA extraction.
(§1) RNA extraction, reverse transcription and real-time PCR: RNA was isolated using Trizol (Sigma) and up to 2 μg of RNA were subjected to cDNA synthesis (Applied Biosystems). Real time PCR was carried out using the PerfeCTa SYBR Green FastMix (Quanta), with the following gene-specific primers: RpLO: […] (SEQ ID NO: 1) and ATCTGCTTGGAGCCCACAT (SEQ ID NO: 2); AR: […] (SEQ ID NO: 3) and […] (SEQ ID NO: 4); PPAR-gamma: […] (SEQ ID NO: 5) and […] (SEQ ID NO: 6); PPAR-beta: TTCCTTCCAGCAGCTGTG (SEQ ID NO: 7) and TCGCACGCGTGGACC (SEQ ID NO: 8); FASN: […] (SEQ ID NO: 9) and […] (SEQ ID NO: 10). Amplicon levels were analyzed in triplicate and quantitated relative to a standard curve comprising cDNA, and values normalized to levels of the housekeeping gene (Rpl0). Reactions were: 3 min at 95° C., then 40 cycles of 10 sec at 95° C. and 30 sec at 60° C. with addition of melt curve step: 10 sec at 95° C., and increments of 0.5° C. every 5 sec between 65° C. and 95° C.
This is in line with the reported role of c-Myc in regulating differentiation in the SG in vivo. […] Next, using Real time (RT)-PCR analysis, the levels of transcripts that are expressed in either SG differentiating or differentiated cells, which play a key role in this process were examined. Inhibition of c-Myc decreased the levels of all examined factors including Androgen Receptor (AR) and fatty acid synthase (FASN) (FIG. 4O).

DBL-treated organoids [4] = assay: RT-PCR of DBL-treated SG organoids after drug treatment; details: then drug
Description: as §1
The differentiation program in the SG is a multi-step process. Cells prior to the onset or during early stage of differentiation express AR, which is known to reside upstream and lead to the expression of FASN35.
Retinols, such as 13-cis RA, are known to have severe side-effects and concerns have been raised regarding the teratogenicity of these compounds. This highlights the immediate need for alternative treatments. […] Therefore, it was hypothesized that inhibition of c-Myc could serve as a beneficial treatment of acne vulgaris. For this aim, the 10058-F4 c-Myc inhibitor was administered to DBL-treated organoids and size, proliferation and differentiation were monitored.

SG organoids = assay: Acne vulgaris model: DHT, BRL, LIN administered to SG organoids (size, ORO, Ki67); details: administration to organoids (single agents for 7 days; combinations)
Description: Therefore, as a first step, the potent dihydrotestosterone (DHT) androgen, the PPAR-γ BRL-49653 (BRL) activator and linoleic acid (LIN) known to activate PPAR-B38 were administered to organoids.

SG organoid = SG organoid as model organ to test drugs (caspase-3 inhibitors, Tretinoin); details: for attenuation of SG organoid size: 100 uM, after 72 hours
Description: Organoids were generated as described herein and treated with two caspase-3 inhibitors (zDEVD-fmk at 100 uM and […] at 100 uM) to assess their effect on the SG. A known anti-acne drug, Tretinoin (10-100 uM) was also added as a positive control.

[5] = tested on: freshly isolated α6+; ScaI−; Blimp1−YFP+ cells; assay: Organoid generation from primary cells directly seeded in Matrigel with ROCK inhibitor; details: cultures supplemented with ROCK inhibitor and GFs
Source text: It was next examined if these Blimp1+ cell-derived organoids could be generated by isolating primary α6+; ScaI−; Blimp1−YFP+ cells and directly seeding them into Matrigel without a pre-culturing phase. […] Thus, these cultures were supplemented with a ROCK inhibitor (Y27632), which prevents cell-cell interaction-dependent anoikis.

[6] = IF staining, inhibitor for 4 days
[7] = six-day old SG organoids, inhibitor for 4 days

CC1=C(/C=C/C(C)=C/C=C/C(C)=C\C(=O)O)C(C)(C)CCC1 [13-cis RA, 13-cis-Retinoic acid]
number of ORO+ cells (DBL-treated organoids [1]; then drug): heightened number | organoid size (DBL-treated organoids [1]): significant decrease

CCc1ccc(C=C2SC(=S)NC2=O)cc1 [10058-F4, 5-[(4-Ethylphenyl)methylene]-2-thioxo-4-thiazolidinone]
decline in Ki67+ proliferative cells [2, 6]: 69% | decline in MCM2+ proliferative cells [2, 6]: 72% | lipid levels (ORO dye staining) ([2]; inhibitor for 4 days): significant decrease | decrease in organoid size ([2]; six-day old SG organoids, c-Myc inhibitor for 4 days, vs DMSO control): ~40% | decline in cell diameter, cells in the inner compartment [2, 7]: ~40% | diameter of individual cells in the outer proliferating layer of the organoid [2, 7]: modest size decrease | localization of c-Myc [2, 7]: did not affect | number of cells in the outer ring of the organoids [2, 7]: decreased | Androgen Receptor (AR) transcript level [3]: decreased | PPAR-β transcript level [3]: significantly attenuated | PPAR-γ transcript level [3]: significantly attenuated | fatty acid synthase (FASN) transcript level [3]: decreased | decrease in the number of Ki67+ cells (DBL-treated organoids [1]; then drug): more than 80% | number of ORO+ cells (DBL-treated organoids [1]; then drug): significant decrease | size of individual inner cells (DBL-treated organoids [1]; then drug): decrease | organoid size (DBL-treated organoids [1]): significant decrease | expression levels of lipid synthesis genes (DBL-treated organoids [4]): significantly lower | mRNA level of Cyclin D1 (DBL-treated organoids [4]): significant decrease | mRNA level of c-Myc (DBL-treated organoids [4]): significant decrease

C[C@]12CCC(=O)C[C@@H]1CC[C@@H]1[C@@H]2CC[C@]2(C)[C@@H](O)CC[C@@H]12 [DHT, dihydrotestosterone]
size of individual SG organoids (SG organoids): significantly increased

CC(=O)OCCN1C(=O)c2c(C)nc3ccc(S(=O)(=O)N4CCOCC4)cc3c2C1=O [Ivachtin]
attenuation of SG organoid size (SG organoid): about 30%

CCCCC/C=C\C/C=C\CCCCCCCC(=O)O [LIN, linoleic acid]
size of individual SG organoids (SG organoids): significantly increased

CC1=C(/C=C/C(C)=C/C=C/C(C)=C/C(=O)O)C(C)(C)CCC1 [Tretinoin, all-trans-Retinoic acid]
reduction of SG organoid size compared with the caspase-3 inhibitors (SG organoid; 10-100 uM, positive control): very similar | number of ORO+ cells (DBL-treated organoids [1]; then drug): heightened number | organoid size (DBL-treated organoids [1]): significant decrease

C[C@@H](N)[C@H]1CC[C@H](C(=O)Nc2ccncc2)CC1 [Y27632]
organoid generation from primary cells seeded into Matrigel without pre-culturing [5]: able to give rise to organoids, although at a lower efficiency

COC(=O)CC[C@H](NC(=O)[C@H](CC(=O)OC)NC(=O)OCc1ccccc1)C(=O)N[C@H](C(=O)N[C@@H](CC(=O)OC)C(=O)CF)C(C)C [zDEVD-fmk]
attenuation of SG organoid size (SG organoid): about 30% | cells positive for Ki67 (SG organoid; caspase-3 inhibitor treatment): greatly reduced | cells positive for MCM2 (SG organoid; caspase-3 inhibitor treatment): greatly reduced
